The record followed here is ChEMBL document CHEMBL1914392, “Comparative studies on interactions of baicalein, baicalin and scutellarin with lysozyme” (2011).

What is called MIC50 is the lowest concentration that inhibits either 50% of growth or 50% of the strains tested, depending on the study.

Test [1] is filed under the species Gallus gallus. The test can be described thus: Binding affinity to hen egg white lysozyme assessed as Stem-Volmer dynamic quenching constant at 298 K by Stern-Volmer plot analysis.
For test [2], the species on record is Gallus gallus. The test can be described thus: Binding affinity to hen egg white lysozyme assessed as Stem-Volmer dynamic quenching constant at 310 K by Stern-Volmer plot analysis.
For test [3], the species on record is Gallus gallus. The test can be described thus: Binding affinity to hen egg white lysozyme assessed as quenching rate constant at 298 K by Stern-Volmer plot analysis.
The species entered for test [4] is Gallus gallus. The experiment in a line: Binding affinity to hen egg white lysozyme assessed as quenching rate constant at 310 K by Stern-Volmer plot analysis.
The species entered for test [5] is Gallus gallus. The experiment in a line: Binding affinity to hen egg white lysozyme assessed as effective quenching constant at 298 K by Lineweaver-Burk plot analysis.
The species entered for test [6] is Gallus gallus. The test can be described thus: Binding affinity to hen egg white lysozyme assessed as effective quenching constant at 310 K by Lineweaver-Burk plot analysis.
For test [7], the species on record is Gallus gallus. The experiment in a line: Binding affinity to hen egg white lysozyme assessed as reduction in fluorescence intensity at 1 to 7 x 10^-6 M at 310 K.
The species entered for test [8] is Gallus gallus. The test can be described thus: Binding affinity to hen egg white lysozyme assessed as reduction in fluorescence intensity at 1 to 7 x 10^-6 M at 298 K.
For test [9], the species on record is Gallus gallus. The test can be described thus: Binding affinity to hen egg white lysozyme at 298 K.
The species entered for test [10] is Gallus gallus. The test can be described thus: Binding affinity to hen egg white lysozyme at 310 K.
The test system of test [11] is Staphylococcus aureus. The test can be described thus: Antibacterial activity against Staphylococcus aureus. It counts as functional.
The species entered for test [12] is Gallus gallus. The test can be described thus: Binding affinity to hen egg white lysozyme in presence of 2 x10'-3 M.
For test [13], the system named is Staphylococcus aureus. The test can be described thus: Antibacterial activity against Staphylococcus aureus in presence of 25 mg/L lysozyme. It is filed as functional.

In brackets after ≈: the same amount, converted by molar mass. Activity calls are given as the source filed them. The rule behind the calls is not given here.

On to `CC(C)(CO)[C@@H](O)C(=O)NCCC(=O)O`, for which the KSV in the test filed under Gallus gallus [1] came to 1.04 ×10⁵ L/mol; in the test listed under Gallus gallus [2] it was 8.05 ×10⁴ L/mol. Besides, the Kq in the test listed under Gallus gallus [3] was found to be 1.02 ×10¹³ L/mol/s; in the test listed under Gallus gallus [4], 8.03 ×10¹² L/mol/s; in the test listed under Gallus gallus [5] it was 1.28 ×10⁵ L/mol; in the test listed under Gallus gallus [6], 5.27 ×10⁴ L/mol.
With `O=c1cc(-c2ccccc2)oc2cc(O)c(O)c(O)c12` [BAICALEIN], the result in the test listed under Gallus gallus [7] and in the test filed under Gallus gallus [8] was Active. Further, the KSV in the test filed under Gallus gallus [1] came out at 2.02 ×10⁵ L/mol; in the test listed under Gallus gallus [2] it was 1.75 ×10⁵ L/mol. For the same compound, the Kq in the test listed under Gallus gallus [3] came out at 2.02 ×10¹³ L/mol/s; in the test filed under Gallus gallus [4], 1.75 ×10¹³ L/mol/s; in the test listed under Gallus gallus [5], 1.77 ×10⁵ L/mol; in the test listed under Gallus gallus [6] it was 1.68 ×10⁵ L/mol. Besides, the K in the test listed under Gallus gallus [9] turned out to be 3.39 ×10⁵ L/mol; in the test listed under Gallus gallus [10] it was 2.14 ×10⁵ L/mol; in the test filed under Gallus gallus [12] it was 1.5 ×10⁸ Lmol. For the same compound, the MIC50 in the test with Staphylococcus aureus [11] was 550 µg/mL (≈ 2040 µM); in the test on Staphylococcus aureus [13] it was 350 µg/mL.
Turning to `O=C(O)[C@H]1O[C@@H](Oc2cc3oc(-c4ccccc4)cc(=O)c3c(O)c2O)[C@H](O)[C@@H](O)[C@@H]1O` [BAICALIN], the outcome in the test listed under Gallus gallus [7] and in the test listed under Gallus gallus [8] was Active. Moreover, the KSV in the test filed under Gallus gallus [1] turned out to be 1.25 ×10⁵ L/mol; in the test listed under Gallus gallus [2], 1.14 ×10⁵ L/mol. Moreover, the Kq in the test filed under Gallus gallus [3] is 1.25 ×10¹³ L/mol/s; in the test listed under Gallus gallus [4], 1.14 ×10¹³ L/mol/s; in the test filed under Gallus gallus [5], 1.74 ×10⁵ L/mol; in the test filed under Gallus gallus [6], 1.16 ×10⁵ L/mol. Also, the results for the K in the test listed under Gallus gallus [9], in the test filed under Gallus gallus [10] and in the test filed under Gallus gallus [12] were 2.95 ×10⁴ L/mol, 1.02 ×10⁵ L/mol and 1.17 ×10⁶ Lmol, respectively. In addition, the MIC50 is 450 µg/mL (≈ 1010 µM) against Staphylococcus aureus [11] and 350 µg/mL in the test on Staphylococcus aureus [13].
Take `O=C(O)[C@H]1O[C@@H](Oc2cc3oc(-c4ccc(O)cc4)cc(=O)c3c(O)c2O)[C@H](O)[C@@H](O)[C@@H]1O` [SCUTELLARIN]: the result in the test listed under Gallus gallus [7] and in the test filed under Gallus gallus [8] was Active. The KSV in the test listed under Gallus gallus [1] turned out to be 1.63 ×10⁵ L/mol; in the test listed under Gallus gallus [2] it was 1.55 ×10⁵ L/mol. Besides, the Kq amounted to 1.63 ×10¹³ L/mol/s in the test filed under Gallus gallus [3], 1.55 ×10¹³ L/mol/s in the test filed under Gallus gallus [4], 1.25 ×10⁵ L/mol in the test filed under Gallus gallus [5] and 1.15 ×10⁵ L/mol in the test filed under Gallus gallus [6]. For the same compound, the K is 7.76 ×10⁵ L/mol in the test listed under Gallus gallus [9], 3.98 ×10⁵ L/mol in the test listed under Gallus gallus [10] and 2.24 ×10⁶ Lmol in the test filed under Gallus gallus [12]. For the same compound, the figures for the MIC50 with Staphylococcus aureus [11] and with Staphylococcus aureus [13] were 650 µg/mL (≈ 1410 µM) and 500 µg/mL, respectively.
